This passage reports inhibition and melting point results from US6689805B2, “Pyrazole-3-one derivative, method for preparing the same, and pharmaceutical composition containing the same” (CJ Corp., priority 2002, dated 2004).

A word on the inhibition: it is the relative decrease from the control value, in per cent. One may read the melting point as the temperature, or range, at which the solid turns liquid.

The target of one series is T1, COX-1 (Homo sapiens, UniProt P23219).
T1 construct: endogenous in cells
T1 sequence (P23219 24-599): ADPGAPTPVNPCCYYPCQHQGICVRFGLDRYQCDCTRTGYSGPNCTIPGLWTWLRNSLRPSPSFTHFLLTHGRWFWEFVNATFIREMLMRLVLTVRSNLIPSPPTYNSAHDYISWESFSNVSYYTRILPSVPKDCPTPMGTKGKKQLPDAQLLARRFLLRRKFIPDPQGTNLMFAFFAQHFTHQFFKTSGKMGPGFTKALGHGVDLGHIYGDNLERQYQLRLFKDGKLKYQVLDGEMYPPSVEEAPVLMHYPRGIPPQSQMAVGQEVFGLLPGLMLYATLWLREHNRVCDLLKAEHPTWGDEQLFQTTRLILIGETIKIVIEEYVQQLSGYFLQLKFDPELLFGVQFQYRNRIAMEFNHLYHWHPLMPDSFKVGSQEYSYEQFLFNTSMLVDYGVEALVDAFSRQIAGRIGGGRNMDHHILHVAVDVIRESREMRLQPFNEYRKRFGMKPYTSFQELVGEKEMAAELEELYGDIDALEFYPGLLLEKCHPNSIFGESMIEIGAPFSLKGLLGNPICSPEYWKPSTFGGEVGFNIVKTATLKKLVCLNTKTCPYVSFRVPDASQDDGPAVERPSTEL
In words: Assay for the COX-1 inhibitory activity using U-937 (PGE2 inhibition). Type of series: cell-based. Conditions: test compound 1 μM; U-937 human lymphoma cells; PGE2 vs DMSO control; read-out: Cyclooxygenase (COX) Inhibition (%) COX-1 (1 μM). As to the method: The collected cells were diluted with HBSS (x1, Hank's balanced salt solution) to a concentration of 1×10^6 cells/ml. 1 ml of the dilute cell solution was placed into each well of 12-well plates. 5 μl of 1 μM solution of a test compound in DMSO and 5 μl of DMSO as a control were added to the wells. The wells were incubated in CO2 incubator at 37° C. for 15 minutes. Separately, 10 mM stock solution of arachidonic acid in ethanol was diluted ten times in ethanol to prepare 1 mM solution of arachidonic acid. Arachidonic acid acts as a substrate. 10 μl of the 1 mM solution of arachidonic acid was added to each well and incubated at CO2 incubator at 37° C. for 30 minutes. The cell solution of each well was placed in a centrifuge test tube and centrifuged at 10,000 rpm at 4° C. for 5 minutes. The concentration of PGE2 in the collected cells and the supernatant was quantified by means of a monoclonal kit (Cayman Chemicals). The percentages of PGE2 inhibition in a group of the test compound-treated cells in relation to a group of the DMSO-treated cells were calculated. Based on the calculated values, the COX-1 inhibitory activities were evaluated.
(§1) The percentages of the COX inhibition were calculated according to the following equation:
(§2) % Inhibition=(concentration of PGE2 in test compound-untreated sample−concentration of PGE2 in test compound-treated sample) / (concentration of PGE2 in test compound-untreated sample)×100

The target of another series is T2, COX-2 (Mus musculus, UniProt Q05769).
T2 construct: endogenous in cells
T2 sequence (Q05769 18-604): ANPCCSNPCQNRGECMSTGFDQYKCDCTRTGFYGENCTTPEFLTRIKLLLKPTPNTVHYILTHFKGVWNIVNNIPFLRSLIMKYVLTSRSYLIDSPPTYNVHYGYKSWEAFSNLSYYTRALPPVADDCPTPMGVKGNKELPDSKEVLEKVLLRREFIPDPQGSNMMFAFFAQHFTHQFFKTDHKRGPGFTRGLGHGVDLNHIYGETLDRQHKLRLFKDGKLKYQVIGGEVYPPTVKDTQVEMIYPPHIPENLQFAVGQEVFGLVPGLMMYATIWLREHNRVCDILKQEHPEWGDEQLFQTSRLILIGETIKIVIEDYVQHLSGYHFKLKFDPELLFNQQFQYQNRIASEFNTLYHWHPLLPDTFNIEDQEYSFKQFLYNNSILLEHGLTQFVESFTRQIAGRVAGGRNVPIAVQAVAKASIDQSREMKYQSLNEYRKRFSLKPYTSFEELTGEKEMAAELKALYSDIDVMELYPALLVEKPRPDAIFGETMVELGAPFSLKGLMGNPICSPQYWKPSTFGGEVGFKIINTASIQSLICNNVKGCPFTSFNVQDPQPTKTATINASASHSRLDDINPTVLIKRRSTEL
In words: Assay for the COX-2 inhibitory activity using RAW 264.7 cell line (PGE2 inhibition). Conditions: RAW264.7, test compound 10 nM, RAW 264.7 cells, interferon + LPS induced, read-out: Cyclooxygenase (COX) Inhibition (%) COX-2 (10 nM). The series is classed as cell-based. As to the method: Each well was treated with 250 μM of aspirin and incubated at 37° C. for 2 hours. After the culture media were replaced with new culture media, the new culture media were treated with a test compound (10 nM) and incubated for 30 minutes. Then, each well was treated with interferon ? (100 units/ml) and lipopolysaccharide (LPS, 100 ng/ml) and incubated for 18 hours. The culture media were transferred to other test tubes. The concentration of PGE2 was quantified by means of the EIA kit (Cayman Chemicals).
as §1, §2

As to `COc1ccc(-c2c(-c3ccc(S(C)(=O)=O)cc3)n(C)n(C)c2=O)cc1` [Example 5, 5-(4-methanesulfonylphenyl)-4-(4-methoxyphenyl)-1,2-dimethyl-1,2-dihydropyrazole-3-one], the melting point lay within 245 to 247 °C. Moreover, the inhibition at 1 µM on COX-1 turned out to be 10.5%. The inhibition at 0.01 µM on COX-2 came out at 22.5%.
The compound `Cn1c(-c2ccc(S(C)(=O)=O)cc2)c(-c2ccccc2)c(=O)n1C` [Example 6, 5-(4-methanesulfonylphenyl)-1,2-dimethyl-4-phenyl-1,2-dihydropyrazole-3-one] came in with a melting point of 210 to 212 °C. The inhibition at 1 µM on COX-1 was 22.6%. In addition, on COX-2, the inhibition at 0.01 µM was found to be 13.2%.
On the same counts, the results for `Cc1ccc(-c2c(-c3ccc(S(C)(=O)=O)cc3)n(C)n(C)c2=O)cc1` [Example 7, 5-(4-methanesulfonylphenyl)-1,2-dimethyl-4-(4-methylphenyl)-1,2-dihydropyrazole-3-one] are 247 to 249 °C, 36.5% and 12.5%.
Turning to `Cn1c(-c2ccc(S(C)(=O)=O)cc2)c(-c2ccc(Cl)c(Cl)c2)c(=O)n1C` [Example 8, 4-(3,4-dichlorophenyl)-5-(4-methanesulfonylphenyl)-1,2-dimethyl-1,2-dihydropyrazole-3-one], the melting point lay within 240 to 242 °C.
`Cc1onc(-c2ccccc2)c1-c1ccc(S(N)(=O)=O)cc1` [Reference (Valdecoxib), Valdecoxib, reference compound]: on COX-1, the inhibition at 1 µM is 28.8%.
